Tests used:
[1] = system: control sera (pooled serum of ten healthy LUMC hospital workers; commercial negative donor pooled serum from the Dutch bloodbank); assay type: binding, human
[2] = system: rabbit serum obtained by immunizing a rabbit with the SARS-CoV strain Frankfurt 1; assay type: binding; parameters: Binding of a rabbit serum to linear peptides / Binding of a rabbit serum to looped peptides / Rabbit serum linear peptides / Rabbit serum looped peptides / Binding of a rabbit serum to linear peptides of protein N of SARS-CoV Urbani (Rabbit serum linear peptides) / Binding of a rabbit serum to looped/cyclic peptides of protein N of SARS-CoV Urbani (Rabbit serum looped peptides): unit not given here
[3] = system: antibodies in sera from SARS patients (sera 1a, 1b, 2, 6, 37, 62, London, SARS-yellow, SARS-green); assay type: binding, human; parameters: Binding of serum 6 to linear peptides of protein X1 of SARS-CoV Urbani / Binding of serum 37 to linear peptides of protein X1 of SARS-CoV Urbani / Binding of serum 6 to looped/cyclic peptide (PEPSCAN-ELISA) / Binding of serum 37 to looped/cyclic peptide (PEPSCAN-ELISA) / Binding of serum 37 to looped/cyclic peptides of protein X1 of SARS-CoV Urbani / Binding of serum 6 to linear peptides of protein X2 / Binding of serum 37 to linear peptides of protein X2 / Binding of serum 37 to looped/cyclic peptides of protein X2 of SARS-CoV Urbani / Binding of serum 6 to linear peptides of protein M of SARS-CoV Urbani / Binding of serum 37 to linear peptides of protein M of SARS-CoV Urbani / Binding of serum 6 to looped/cyclic peptides of protein M of SARS-CoV Urbani / Binding of serum 37 to looped/cyclic peptides of protein M of SARS-CoV Urbani / Binding of serum 6 to linear peptides of protein X3 of SARS-CoV Urbani / Binding of serum 37 to linear peptides of protein X3 of SARS-CoV Urbani / Binding of serum 37 to looped/cyclic peptides of protein X3 of SARS-CoV Urbani / Binding of serum 6 to linear peptides of protein X4 of SARS-CoV Urbani / Binding of serum 37 to linear peptides of protein X4 of SARS-CoV Urbani / Binding of serum 37 to looped/cyclic peptides of protein X4 of SARS-CoV Urbani / Binding of serum 6 to linear peptides of protein X5 of SARS-CoV Urbani / Binding of serum 37 to linear peptides of protein X5 of SARS-CoV Urbani / Binding of serum 37 to looped/cyclic peptides of protein X5 of SARS-CoV Urbani / Binding of serum 6 to linear peptides of protein N of SARS-CoV Urbani / Binding of serum 37 to linear peptides of protein N of SARS-CoV Urbani / Binding of serum 6 to linear peptide (PEPSCAN-ELISA) / Binding of serum 1a to looped/cyclic peptides of protein N of SARS-CoV Urbani / Binding of serum 1b to looped/cyclic peptides of protein N of SARS-CoV Urbani / Binding of serum 2 to looped/cyclic peptides of protein N of SARS-CoV Urbani / Binding of serum 6 to looped/cyclic peptides of protein N of SARS-CoV Urbani / Binding of serum 37 to looped/cyclic peptides of protein N of SARS-CoV Urbani / Binding of serum 62 to looped/cyclic peptides of protein N of SARS-CoV Urbani / Binding of serum London to looped/cyclic peptides of protein N of SARS-CoV Urbani / Binding of serum SARS-green to looped/cyclic peptides of protein N of SARS-CoV Urbani: unit not given here
[4] = system: recombinant human anti-SARS-CoV antibody 03-018; assay type: binding; parameters: Binding of antibody 03-018 to linear peptides of the N protein of SARS-CoV Urbani / Binding of antibody 03-018 to looped/cyclic peptides of the N protein of SARS-CoV Urbani: unit not given here
[5] = target: SARS-CoV preparation (Frankfurt 1 strain) (SARS-CoV strain Frankfurt 1)

TPSGTWLTYHGAIKL
Control Serum Blood-Bank Looped peptides [1]: 0.7 | Control serum Blood-bank linear peptides [1]: 0.8 | Control serum LUMC linear peptides [1]: 0.6 | Control serum LUMC looped peptides [1]: 0.5 | Binding of a rabbit serum to linear peptides of protein N of SARS-CoV Urbani (Rabbit serum linear peptides) [2]: 0.1 | Binding of a rabbit serum to looped/cyclic peptides of protein N of SARS-CoV Urbani (Rabbit serum looped peptides) [2]: 0.4 | Binding of serum 1a to linear peptides of protein N of SARS-CoV Urbani [3]: 0.2 | Binding of serum 1a to looped/cyclic peptides of protein N of SARS-CoV Urbani [3]: 0.4 | Binding of serum 1b to linear peptides of protein N of SARS-CoV Urbani [3]: 0.1 | Binding of serum 1b to looped/cyclic peptides of protein N of SARS-CoV Urbani [3]: 0.2 | Binding of serum 2 to linear peptides of protein N of SARS-CoV Urbani [3]: 0.2 | Binding of serum 2 to looped/cyclic peptides of protein N of SARS-CoV Urbani [3]: 0.4 | Binding of serum 6 to linear peptides of protein N of SARS-CoV Urbani [3]: 0.2 | Binding of serum 6 to looped/cyclic peptides of protein N of SARS-CoV Urbani [3]: 0.2 | Binding of serum 37 to linear peptides of protein N of SARS-CoV Urbani [3]: 0.7 | Binding of serum 37 to looped/cyclic peptides of protein N of SARS-CoV Urbani [3]: 0.8 | Binding of serum 62 to linear peptides of protein N of SARS-CoV Urbani [3]: 0.6 | Binding of serum 62 to looped/cyclic peptides of protein N of SARS-CoV Urbani [3]: 0.8 | Binding of serum London to linear peptides of protein N of SARS-CoV Urbani [3]: 0.7 | Binding of serum London to looped/cyclic peptides of protein N of SARS-CoV Urbani [3]: 0.5 | Binding of serum SARS-green to linear peptides of protein N of SARS-CoV Urbani [3]: 0.3 | Binding of serum SARS-green to looped/cyclic peptides of protein N of SARS-CoV Urbani [3]: 0.3 | Binding of serum SARS-yellow to linear peptides of protein N of SARS-CoV Urbani [3]: 0.5 | Binding of serum SARS-yellow to looped/cyclic peptides of protein N of SARS-CoV Urbani [3]: 0.4 | Binding of antibody 03-018 to linear peptides of the N protein of SARS-CoV Urbani [4]: 0.1 | Binding of antibody 03-018 to looped/cyclic peptides of the N protein of SARS-CoV Urbani [4]: 0.2

B1: SC03-006 (scFv)
scFv: SMAEVQLVESGGGLVQPGGSLRLSCAASGFTFSGYPMHWVRQAPGKGLEWVAVISYDGSNKYYADSVKGRFTISRDNSKNTLYLQMNSLRAEDTAVYYCAKDGSPRTPSFDYWGQGTLVTVLEGTGGSGGTGSGTGTSELDIQMTQSPHSLSASVGDRVTITCRASQGISNYLAWYQQKPGKVPKLLIYAASTLQSGVPSRFSGSGSGTDFTLTISSLQPEDVGVYYCQQRFRTPVTFGQGTKLEIKRAAA
OD492nm [5]: 1.06 OD492nm

B2: SC03-015 (scFv)
scFv: AMAEVQLVESGGGVVRPGGSLRLSCAASGFTFDDYGMSWVRQAPGKGLEWVSGINWNGGSTGYADSVKGRFTISRDNAKNSLYLQMNSLRAEDTAVYYCARGLSLRPWGQGTLVTVSRGGGGSGGGGSGGGGSSELTQDPAVSVALGQTVRITCQGDSLRSYYASWYQQKPGQAPVLVIYGKNNRPSGIPDRFSGSSSGNTASLTITGAQAEDEADYYCNSRDSSGNHVVFGGGTKLTVLGAAA
OD492nm [5]: 0.796 OD492nm
